Patent US6465258B1, “FXR receptor-mediated modulation cholesterol metabolism” (Tularik, Inc., priority 1999, dated 2002)
Entries after “also recorded” stand apart in the source; their conditions may differ.

Experiments:
[1] = target: T1, LXRα (Homo sapiens, UniProt Q13133); experiment: ELISA peptide sensor assay, LXRα control; format: binding; details: FIG. 5C bottom panel
T1 sequence (Q13133 1-447): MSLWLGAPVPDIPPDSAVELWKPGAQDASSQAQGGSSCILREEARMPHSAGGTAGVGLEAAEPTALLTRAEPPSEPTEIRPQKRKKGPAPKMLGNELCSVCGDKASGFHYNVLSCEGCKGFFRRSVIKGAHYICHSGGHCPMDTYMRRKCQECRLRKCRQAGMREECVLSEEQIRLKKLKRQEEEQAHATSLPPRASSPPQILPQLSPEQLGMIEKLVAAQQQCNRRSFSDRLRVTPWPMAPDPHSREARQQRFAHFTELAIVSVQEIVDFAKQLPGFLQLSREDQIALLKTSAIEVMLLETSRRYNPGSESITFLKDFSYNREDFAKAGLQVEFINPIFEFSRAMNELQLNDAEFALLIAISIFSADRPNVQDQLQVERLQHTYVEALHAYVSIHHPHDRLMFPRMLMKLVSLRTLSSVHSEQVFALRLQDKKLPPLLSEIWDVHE
Source text: A peptide sensor was used.

[2] = target: T1, LXRα; experiment: FRET (HTRF) LXRα receptor control; format: binding; details: FIG. 5B bottom panel
[3] = test system: HNF4α, LXRα, RXRα and LXRβ ligand-binding domains fused to Gal4 DBD; experiment: GAL4 DBD fusions with LBDs of other nuclear receptors, luciferase reporter in HepG2 cells; format: cell-based; details: 50 μM CDCA, FIG. 1A
[4] = test system: FXR / cyp7a promoter; details: HepG2 cells
[5] = target: T2, full-length FXR (Homo sapiens, UniProt Q96RI1); experiment: pGL3 3X FXRE luciferase reporter with full-length FXR in HepG2 cells; format: cell-based; details: panel of bile acids, FIG. 4C
T2 construct: a plasmid expressing full-length FXR (PFXR); expressed in transfected cells; host or cells: HepG2
T2 sequence (Q96RI1 1-486): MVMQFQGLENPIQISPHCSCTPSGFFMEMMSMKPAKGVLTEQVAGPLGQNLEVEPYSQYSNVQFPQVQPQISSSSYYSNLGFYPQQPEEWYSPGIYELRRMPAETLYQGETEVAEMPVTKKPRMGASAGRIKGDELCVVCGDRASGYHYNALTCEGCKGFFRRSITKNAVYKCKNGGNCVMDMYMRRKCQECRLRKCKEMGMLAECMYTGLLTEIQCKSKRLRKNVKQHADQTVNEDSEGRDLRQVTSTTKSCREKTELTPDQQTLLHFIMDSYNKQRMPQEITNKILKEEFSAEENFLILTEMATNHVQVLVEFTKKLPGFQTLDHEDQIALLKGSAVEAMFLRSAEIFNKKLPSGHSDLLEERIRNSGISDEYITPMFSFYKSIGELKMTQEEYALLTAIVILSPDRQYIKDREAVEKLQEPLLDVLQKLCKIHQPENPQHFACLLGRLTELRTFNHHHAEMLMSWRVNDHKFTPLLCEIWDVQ
Source text: The ability of different bile acids and derivatives to activate FXR-mediated transactivation was also examined.

## C[C@H](CCC1OC1(C)C)[C@H]1CC[C@H]2[C@@H]3CC=C4C[C@@H](O)CC[C@]4(C)[C@H]3CC[C@]12C (stereo partly drawn) [24,25 epoxycholesterol]
[1]
  binding of sensor peptide to LXRα control (ELISA): increased binding
[2]
  binding of LXRα receptor control by FRET: affected

## C[C@H](CCC(=O)O)[C@H]1CC[C@H]2[C@@H]3[C@H](O)C[C@@H]4C[C@H](O)CC[C@]4(C)[C@H]3CC[C@]12C [CDCA, chenodeoxycholic acid]
[3]
  activation of ligand binding domains of other nuclear receptors fused to GAL4 DBD: not activated
[4]; 10 μM CDCA, FXR vs CPF, HNF4α, LXRα, RXRα, FIG. 2A
  suppression of CYP7 expression by nuclear receptors in presence of CDCA: Only FXR suppressed CYP7 expression
[4]; panel of bile acids, FIG. 4D
  FXR-mediated suppression of CYP7 expression, rank among bile acids: highest level of suppression; also recorded: largest repression

## CC(CCC(=O)NCC(=O)O)C1CCC2C3C(O)CC4CC(O)CCC4(C)C3CCC12C (stereo not drawn) [GCDCA, glycochenodeoxycholic acid]
[5]
  induction of luciferase reporter activity (FXR-mediated transactivation), rank among bile acids: greatest induction
